EC50 and CC50 data for 15 compounds are collected here from US9951058B2, “Compound, pharmaceutically acceptable salt or optical isomer thereof, method for preparing the same, and pharmaceutical composition for prevention or treatment of viral diseases containing same as active ingredient” (Korea Research Institute of Chemical Technology, priority 2012, dated 2018).

≈ marks a conversion by molar mass, not a printed value.

One data set concerns HRV 14. As to the kind of experiment: Cytopathic effect (CPE) inhibition assay. The following applies: Human rhinovirus sp., HeLa, 72 h, host cell HeLa, 3 days, MEM/2% FBS, MTT assay; read-out: EC50 HRV 14. It is filed as cell-based, human rhinovirus. Background: Damage to the host cells serves as the signal in cytopathic effect assays.
For another data set, the system named is HRV 21. Nature of the data set: Cytopathic effect (CPE) inhibition assay. It counts as cell-based, human rhinovirus. To be noted: Human rhinovirus sp., 72 h; host cell HeLa, 3 days, MEM/2% FBS, MTT assay; read-out: EC50 HRV 21.
The test system of data set [1] is coxsackievirus B1 (Cox B1). As to the kind of experiment: Multicycle cytopathic effect (CPE) reduction assay. It counts as cell-based. To be noted: Enterovirus B, B1, 72 h, read-out: EC50 CoxB1.
Data set [2] has as its system coxsackievirus B3 (Cox B3). As to the kind of experiment: Multicycle cytopathic effect (CPE) reduction assay. It is filed as cell-based. To be noted: Enterovirus B, B3, 72 h, read-out: EC50 CoxB3.
The subject of the next data set is HRV 71. As to the kind of experiment: Cytopathic effect (CPE) inhibition assay. The following applies: Human rhinovirus sp., 72 h; host cell HeLa, 3 days, MEM/2% FBS, MTT assay; read-out: EC50 HRV 71. It is filed as cell-based, human rhinovirus.
A short description of data set [3]: Cytotoxicity (CC50) in multicycle CPE reduction assay, MTS. To be noted: human.
The next data set has as its system poliovirus 3 (PV3). As to the kind of experiment: microbe, parasite or virus in culture. It counts as cell-based. The following applies: Enterovirus C, 72 h, read-out: EC50 PV3.
A further data set can be described thus: in vitro. To be noted: human.

As a reminder, the EC50 is the concentration needed to bring the measured effect to its halfway point. `CC(=O)C(=O)NC12C(=O)c3c(N)cccc3C1(O)Oc1cc(C(C)C)ccc12` (stereo not drawn) [Example 22, N-(1-amino-4b-hydroxy-7-isopropyl-10-oxo-4b, 10-dihydro-9bH-indeno[1,2-b]benzofuran-9b-yl)-2-oxo propanamide]: the 50% effective concentration (EC50) in the data set with HRV 14 is less than 0.01 µg/mL; in the data set with HRV 21 it was less than 10 µg/mL; in data set [1] it was less than 0.01 µg/mL; in data set [2], less than 0.01 µg/mL; in the data set on HRV 71, 8.5 µg/mL (≈ 22.3 µM); with poliovirus 3 (PV3), less than 0.1 µg/mL. Also, the CC50 at 3 days in data set [3] is more than 10 µg/mL. The compound further registered a CC50 in “in vitro” of more than 10 µg/mL.
With `COc1cc(C(=O)C(=O)NC23C(=O)c4ccccc4C2(O)Oc2cc(C(C)C)ccc23)cc(OC)c1OC` (stereo not drawn) [Example 23, N-(4b-hydroxy-7-isopropyl-10-oxo-4b, 10-dihydro-9bH-indeno[1,2-b]benzofuran-9b-yl)-2-oxo-2-(3,4,5-trimethoxyphenyl)acetamide], the EC50 in the data set with HRV 14 is less than 10 µg/mL; with HRV 21, more than 10 µg/mL; in data set [1] it was less than 0.1 µg/mL; in data set [2], less than 0.1 µg/mL; with HRV 71 it was more than 10 µg/mL; in the data set with poliovirus 3 (PV3), less than 10 µg/mL. In data set [3], this compound came in with a CC50 at 3 days of more than 10 µg/mL. This compound also had a CC50 in the data set “in vitro” of more than 10 µg/mL.
For the compound `COc1ccc(/C=C/C(=O)C(=O)NC23C(=O)c4ccccc4C2(O)Oc2cc(C(C)C)ccc23)cc1OC` (stereo not drawn) [Example 24, (E)-4-(3,4-dimethoxyphenyl)-N-(4b-hydroxy-7-isopropyl-10-oxo-4b, 10-dihydro-9bH-indeno[1,2-b]benzofuran-9b-yl)-2-oxobut-3-enamide], the EC50 is less than 10 µg/mL in the data set with HRV 14; more than 10 µg/mL with HRV 21; less than 0.1 µg/mL in data set [1]; less than 0.1 µg/mL in data set [2]; more than 10 µg/mL with HRV 71; less than 10 µg/mL in the data set with poliovirus 3 (PV3). For the same compound, in data set [3], the CC50 at 3 days is more than 10 µg/mL. The CC50 in “in vitro” is more than 10 µg/mL.
Turning to `Cc1cccc(C)c1NC(=O)C(=O)NC12C(=O)c3cccc([N+](=O)[O-])c3C1(O)Oc1cc(C(C)C)ccc12` (stereo not drawn) [Example 26, N1-(2,6-dimethylphenyl)-N2-(4b-hydroxy-7-isopropyl-4-nitro-10-oxo-4b, 10-dihydro-9bH-indeno[1,2-b]benzofuran-9b-yl)oxal amide], the EC50 in the data set on HRV 14 was less than 10 µg/mL; with HRV 21, more than 10 µg/mL; in data set [1], less than 10 µg/mL; in data set [2], less than 10 µg/mL; in the data set on HRV 71 it was more than 10 µg/mL; in the data set on poliovirus 3 (PV3), more than 10 µg/mL. Further, the CC50 at 3 days in data set [3] is more than 10 µg/mL. This compound also came in with a CC50 in “in vitro” of more than 10 µg/mL.
In the case of `CNC(=O)C(=O)NC12C(=O)c3ccccc3C1(O)Oc1cc(C(C)C)ccc12` (stereo not drawn) [Example 27, N1-(4b-hydroxy-7-isopropyl-10-oxo-4b, 10-dihydro-9bH-indeno[1,2-b]benzofuran-9b-yl)-N2-methyl oxal amide], the EC50 with HRV 14 is less than 1 µg/mL; in the data set on HRV 21, more than 10 µg/mL; in data set [1] it was less than 0.1 µg/mL; in data set [2], less than 0.1 µg/mL; with HRV 71, more than 10 µg/mL; with poliovirus 3 (PV3) it was less than 10 µg/mL. The compound further registered a CC50 at 3 days in data set [3] of more than 10 µg/mL. For the same compound, the CC50 in the data set “in vitro” is more than 10 µg/mL.
As for `CCC(C)C(=O)C(=O)NC12C(=O)c3cccc([N+](=O)[O-])c3C1(O)Oc1cc(C(C)C)ccc12` (stereo not drawn) [Example 28, N-(4b-hydroxy-7-isopropyl-4-nitro-10-oxo-4b, 10-dihydro-9bH-indeno[1,2-b]benzofuran-9b-yl)-3 methyl-2-oxo pentanamide], the EC50 with HRV 14 was less than 10 µg/mL; in the data set with HRV 21, more than 10 µg/mL; in data set [1], less than 1 µg/mL; in data set [2], less than 10 µg/mL; in the data set on HRV 71, more than 10 µg/mL; in the data set with poliovirus 3 (PV3) it was more than 10 µg/mL. For the same compound, in data set [3], the CC50 at 3 days was more than 10 µg/mL. Moreover, the CC50 in the data set “in vitro” was more than 10 µg/mL.
On to `CCC(C)C(=O)C(=O)NC12C(=O)c3ccccc3C1(O)Oc1cc(C(C)C)ccc12` (stereo not drawn) [Example 29, N-(4b-hydroxy-7-isopryl-10-oxo-4b, 10-dihydro-9bH-indeno[1,2-b]benzofuran-9b-yl)-3-methyl-2-oxo pentanamide], for which the EC50 in the data set on HRV 14 is less than 1 µg/mL; with HRV 21 it was more than 10 µg/mL; in data set [1] it was less than 0.1 µg/mL; in data set [2], less than 0.1 µg/mL; with HRV 71, more than 10 µg/mL; in the data set on poliovirus 3 (PV3) it was less than 1 µg/mL. Also, the CC50 at 3 days in data set [3] is more than 10 µg/mL. For the same compound, the CC50 in “in vitro” is more than 10 µg/mL.
Turning to `CC(C)c1ccc2c(c1)OC1(O)c3c(cccc3[N+](=O)[O-])C(=O)C21NC(=O)C(=O)N(C)C` (stereo not drawn) [Example 30, N1-(4b-hydroxy-7-isopropyl-4-nitro-10-oxo-4b, 10-dihydro-9bH-indeno[1,2-b]benzofuran-9b-yl)-N2-N2-dimethyl oxal amide], the EC50 in the data set with HRV 14 was more than 10 µg/mL; in the data set with HRV 21, more than 10 µg/mL; in data set [1] it was less than 10 µg/mL; in data set [2], less than 10 µg/mL; with HRV 71 it was more than 10 µg/mL; with poliovirus 3 (PV3), more than 10 µg/mL. This compound also came in with a CC50 at 3 days in data set [3] of more than 10 µg/mL. In addition, the CC50 in “in vitro” is more than 10 µg/mL.
Regarding `CC(C)c1ccc2c(c1)OC1(O)c3cccc(N)c3C(=O)C21NC(=O)C(=O)N(C)C` (stereo not drawn) [Example 31, N1-(1-amino-4b-hydroxy-7-isopropyl-10-oxo-4b, 10-dihydro-9bH-indeno[1,2-b]benzofuran-9b-yl)-N2, N2-dimethyl oxal amide], the EC50 is 0.012 µg/mL (≈ 0.0293 µM) with HRV 14; less than 10 µg/mL in the data set with HRV 21; less than 0.01 µg/mL in data set [1]; less than 0.01 µg/mL in data set [2]; 73 µg/mL (≈ 178 µM) with HRV 71; less than 0.1 µg/mL with poliovirus 3 (PV3). Also, in data set [3], the CC50 at 3 days is more than 10 µg/mL. In “in vitro”, this compound displayed a CC50 of more than 10 µg/mL.
For the compound `CCOC(=O)C(=O)NC12C(=O)c3ccccc3C1(O)Oc1cc(C(C)C)ccc12` (stereo not drawn) [Example 32, Ethyl 2-((4b-hydroxy-7-isopropyl-10-oxo-4b, 10-dihydro-9bH-indeno[1,2-b]benzofuran-9b-yl)amino)-2-oxo acetate], the half-maximal effective concentration (EC50) with HRV 14 is less than 1 µg/mL; with HRV 21 it was more than 10 µg/mL; in data set [1], less than 0.1 µg/mL; in data set [2], less than 1 µg/mL; in the data set on HRV 71, more than 10 µg/mL; in the data set on poliovirus 3 (PV3) it was less than 10 µg/mL. Further, in data set [3], the CC50 at 3 days is more than 10 µg/mL. This compound also came in with a CC50 in “in vitro” of more than 10 µg/mL.
For `CCOC(=O)C(=O)NC12C(=O)c3cccc([N+](=O)[O-])c3C1(O)Oc1cc(C(C)C)ccc12` (stereo not drawn) [Example 33, Ethyl 2-((4b-hydroxy-7-isopropyl-4-nitro-10-oxo-4b, 10-dihydro-9bH-indeno[1,2-b]benzofuran-9b-yl)amino)-2-oxo acetate], the 50% effective concentration (EC50) was more than 10 µg/mL in the data set with HRV 14; more than 10 µg/mL in the data set with HRV 21; less than 10 µg/mL in data set [1]; less than 10 µg/mL in data set [2]; more than 10 µg/mL in the data set on HRV 71; more than 10 µg/mL in the data set with poliovirus 3 (PV3). Besides, the CC50 at 3 days in data set [3] is more than 10 µg/mL. This compound also registered a CC50 in the data set “in vitro” of more than 10 µg/mL.
For the compound `CCCC(=O)C(=O)NC12C(=O)c3cccc([N+](=O)[O-])c3C1(O)Oc1cc(C(C)C)ccc12` (stereo not drawn) [Example 34, N-(4b-hydroxy-7-isopropyl-4-nitro-10-oxo-4b, 10-dihydro-9bH-indeno[1,2-b]benzofuran-9b-yl)-2-oxo pentanamide], the EC50 with HRV 14 was less than 10 µg/mL; with HRV 21 it was more than 10 µg/mL; in data set [1], less than 1 µg/mL; in data set [2], less than 10 µg/mL; in the data set with HRV 71, more than 10 µg/mL; with poliovirus 3 (PV3) it was less than 10 µg/mL. For the same compound, in data set [3], the CC50 at 3 days is more than 10 µg/mL. The CC50 in the data set “in vitro” was more than 10 µg/mL.
For `CCCCCCC(=O)C(=O)NC12C(=O)c3cccc([N+](=O)[O-])c3C1(O)Oc1cc(C(C)C)ccc12` (stereo not drawn) [Example 35, N-(4b-hydroxy-7-isopropyl-4-nitro-10-oxo-4b, 10-dihydro-9bH-indeno[1,2-b]benzofuran-9b-yl)-2-oxo octanamide], the EC50 in the data set on HRV 14 is less than 10 µg/mL; with HRV 21, more than 10 µg/mL; in data set [1], less than 1 µg/mL; in data set [2], less than 1 µg/mL; in the data set on HRV 71, more than 10 µg/mL; in the data set with poliovirus 3 (PV3) it was less than 10 µg/mL. The CC50 at 3 days in data set [3] is more than 10 µg/mL. In the data set “in vitro”, this compound registered a CC50 of more than 10 µg/mL.
With `CCOC(=O)C(=O)NC12C(=O)c3c(N)cccc3C1(O)Oc1cc(C(C)C)ccc12` (stereo not drawn) [Example 36, Ethyl 2-((1-amino-4b-hydroxy-7-isopropyl-10-oxo-4b, 10-dihydro-9bH-indeno[1,2-b]benzofuran-9b-yl)amino)-2-oxo acetate], the EC50 in the data set on HRV 14 was less than 1 µg/mL; in the data set with HRV 21, more than 10 µg/mL; in data set [1], less than 0.1 µg/mL; in data set [2], less than 0.1 µg/mL; with HRV 71, more than 10 µg/mL; in the data set on poliovirus 3 (PV3), less than 10 µg/mL. The CC50 at 3 days in data set [3] is more than 10 µg/mL. In “in vitro”, the CC50 was more than 10 µg/mL.
Take `CC(C)c1ccc2c(c1)OC1(O)c3ccccc3C(=O)C21NC(=O)C(=O)C(C)(C)C` (stereo not drawn) [Example 37, N-(4b-hydroxy-7-isopropyl-10-oxo-4b, 10-dihydro-9bH-indeno[1,2-b]benzofuran-9b-yl)-3,3-dimethyl-2-oxo butanamide]: the concentration for a half-maximal effect (EC50) was less than 0.1 µg/mL in the data set with HRV 14; more than 10 µg/mL in the data set on HRV 21; less than 0.1 µg/mL in data set [1]; less than 0.1 µg/mL in data set [2]; more than 10 µg/mL in the data set on HRV 71; less than 10 µg/mL in the data set on poliovirus 3 (PV3). In addition, the CC50 at 3 days in data set [3] is more than 10 µg/mL. The compound further displayed a CC50 in “in vitro” of more than 10 µg/mL.
